Measured values from PubChem BioAssay (NCI).
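A five-concentration, 48-hour dose response in 96-well plates underlies each endpoint, interpolated linearly between surrounding concentrations. Here, GI50 denotes the concentration required for 50% inhibition of growth. The concentration for full growth arrest is given as TGI.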

Assays:
Test in all cases: growth of human tumour cells (NCI), 48 h
[1] = tested on: BT-549 breast
[2] = tested on: DU-145 prostate
[3] = tested on: HS 578T breast
[4] = tested on: MCF7 breast
[5] = tested on: PC-3 prostate

SMILES | GI50 [1] [µM] | TGI [1] [µM] | GI50 [2] [µM] | TGI [2] [µM] | TGI [3] [µM] | GI50 [4] [µM] | TGI [4] [µM] | GI50 [5] [µM] | TGI [5] [µM] | GI50 [3] [µM]
Cc1ccc(S(=O)(=O)n2cc(C(=O)C(=O)Nc3ccncc3)c3ccccc32)cc1 | 3.62 | > 100 | 3.34 | > 100 | > 100 | 0.373 | 27.3 | 1.6 | > 100 | –
C/C(=C\c1ccn(-c2ccc(N)cc2)n1)[C@@H]1C[C@@H]2O[C@]2(C)CCC[C@H](C)[C@H](O)[C@@H](C)C(=O)C(C)(C)[C@@H](O)CC(=O)O1 | 0.138 | > 50 | 0.0314 | 0.577 | > 21.6 | 0.0152 | > 50 | 0.0313 | > 50 | 0.0863
COc1cccc2c1c1nc3cc(C)c(C)cc3nc1n2CCN(C)C | 2.36 | 10.2 | 3.01 | 12.1 | 6.99 | 2.13 | 10.9 | 1.73 | 11.6 | 1.8
[N-]=[N+]=CC(=O)OCC(N)C(=O)O (configuration not stated) | 16.7 | > 100 | 0.952 | > 100 | > 100 | 0.456 | > 100 | 2.42 | > 100 | > 100
CCOC(=O)c1cc2ncccc2c2ccccc12 | – | > 100 | – | > 100 | > 100 | – | > 100 | – | > 100 | –
COc1cc2c(cc1OC)[C@@]1(C)C(=O)c3cc4c(cc3[C@H]1N(C)C2=O)OCO4 | 29 | > 100 | 58.1 | > 100 | > 100 | 65.3 | > 100 | 75.2 | > 100 | 41.1
O=C(/C=C\Sc1nccc(C(F)(F)F)n1)c1ccc(Br)cc1 | 44.6 | > 100 | 17.6 | 47.9 | > 100 | 28 | 84.8 | 15.4 | 29.4 | 40.5
COc1ccc(-c2nc(-c3nc4cc(C)c(C)cc4[nH]3)cc3c2[nH]c2ccccc23)cc1 | 2.96 | 8.21 | 8.53 | > 100 | > 100 | 3.22 | 59.7 | 2.77 | 44 | 4.6
COc1cnc2c(c1)C(=O)c1c-2n(CCCN2CCN(C)CC2)c(=O)c2cc(Cl)ccc12 | – | – | 3.18 | 19.8 | 36.2 | 0.487 | 21.7 | 3.6 | 65.7 | 12.9
COc1ccc2c(c1)Cc1c-2c(NN)nc2ccccc12 | 50.4 | > 100 | 32 | > 100 | > 100 | 5.66 | 48.5 | 19.8 | > 100 | 35.8
COC(=O)Nc1nc2ccc(Oc3ccc(NC(=O)Nc4cccc(Cl)c4)cc3)cc2[nH]1 | 5.87 | > 21.8 | 1.58 | 8.44 | 9.67 | 0.307 | 4.75 | 1 | 7.1 | 0.553
